Columns and labels:
Conditions in all cases: exposure time: 72 h
E34 [1] = patient-derived glioblastoma stem cells of proneural subtype; assay: phenotypic distance (Euclidean, principal components) from DMSO controls (arbitrary units); higher = stronger morphological change
E13 [2] = patient-derived glioblastoma stem cells of classical subtype; assay: as above
E21 [3] = patient-derived glioblastoma stem cells of mesenchymal subtype; assay: as above
FT3469 [4] = normal neural stem cell line; assay: as above
E28 [5] = patient-derived glioblastoma stem cells of classical subtype; assay: as above
E57 [6] = patient-derived glioblastoma stem cells of mesenchymal subtype; assay: as above
E31 [7] = patient-derived glioblastoma stem cells of proneural subtype; assay: as above
E34 [8] = assay: surviving fraction (nuclei count normalised to DMSO); higher = more cells surviving (less toxic)
E13 [9] = assay: as above
E21 [10] = assay: as above
FT3469 [11] = assay: as above
E28 [12] = assay: as above
E57 [13] = assay: as above
E31 [14] = assay: as above
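Wherever phenotypic distance (Euclidean, principal components) from DMSO controls is given: cell Painting imaging in 384-well plates, CellProfiler features reduced to at least 20 principal components, Euclidean distance versus same-plate DMSO vehicle wells (0.1% v/v), median over six images per well.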
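Wherever surviving fraction (nuclei count normalised to DMSO) is given: nuclei counted by high-content imaging of Hoechst-stained cells in laminin-coated 384-well plates, relative to 0.1% DMSO vehicle wells, with staurosporine as cell-death control.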

In the case of `CC(=O)[C@]1(O)Cc2c(O)c3c(c(O)c2[C@@H](O[C@H]2C[C@H](N)[C@H](O)[C@H](C)O2)C1)C(=O)c1ccccc1C3=O` [Idarubicin], the phenotypic distance (E34 [1]; 4.1 nM) is reported as 4.82, the phenotypic distance (E34 [1]; 12.3 nM) is reported as 4.66 and the phenotypic distance (E34 [1]; 37 nM) is reported as 2.72. The phenotypic distance (E34 [1]; 111.1 nM) was 2.83, the phenotypic distance (E34 [1]; 333.3 nM) was 2.83 and the phenotypic distance (E34 [1]; 1000 nM) was 5.05. The phenotypic distance (E34 [1]; 3000 nM) was 4, the phenotypic distance (E13 [2]; 4.1 nM) was 7.02 and the phenotypic distance (E13 [2]; 12.3 nM) was 6.41. The phenotypic distance (E13 [2]; 37 nM) was 6.27, the phenotypic distance (E13 [2]; 111.1 nM) was 5.38 and the phenotypic distance (E13 [2]; 333.3 nM) was 6.31. The phenotypic distance (E13 [2]; 1000 nM) was 6.11, the phenotypic distance (E13 [2]; 3000 nM) was 6.59 and the phenotypic distance (E21 [3]; 4.1 nM) was 7.83. For the same compound, the phenotypic distance (E21 [3]; 12.3 nM) was 6.13, the phenotypic distance (E21 [3]; 37 nM) was 5.05 and the phenotypic distance (E21 [3]; 111.1 nM) was 5.05. For the same compound, the phenotypic distance (E21 [3]; 333.3 nM) was 5.58, the phenotypic distance (E21 [3]; 1000 nM) was 5.16 and the phenotypic distance (E21 [3]; 3000 nM) was 8.48. For the same compound, the phenotypic distance (FT3469 [4]; 4.1 nM) was 1.93, the phenotypic distance (FT3469 [4]; 12.3 nM) was 1.84 and the phenotypic distance (FT3469 [4]; 37 nM) was 1.77. It also gave a phenotypic distance (FT3469 [4]; 111.1 nM) of 1.39, a phenotypic distance (FT3469 [4]; 333.3 nM) of 2.3 and a phenotypic distance (FT3469 [4]; 1000 nM) of 3.94. The phenotypic distance (FT3469 [4]; 3000 nM) was 5.56, the phenotypic distance (E28 [5]; 4.1 nM) was 2.71 and the phenotypic distance (E28 [5]; 12.3 nM) was 3.28. It also gave a phenotypic distance (E28 [5]; 37 nM) of 3.42, a phenotypic distance (E28 [5]; 111.1 nM) of 2.57 and a phenotypic distance (E28 [5]; 333.3 nM) of 3.02. For the same compound, the phenotypic distance (E28 [5]; 1000 nM) was 4.74, the phenotypic distance (E28 [5]; 3000 nM) was 5.14 and the phenotypic distance (E57 [6]; 4.1 nM) was 11.4. It also gave a phenotypic distance (E57 [6]; 12.3 nM) of 9.36, a phenotypic distance (E57 [6]; 37 nM) of 6.52 and a phenotypic distance (E57 [6]; 111.1 nM) of 6.05. It also gave a phenotypic distance (E57 [6]; 333.3 nM) of 5.69, a phenotypic distance (E57 [6]; 1000 nM) of 6.02 and a phenotypic distance (E57 [6]; 3000 nM) of 6.32. The phenotypic distance (E31 [7]; 4.1 nM) was 2.69, the phenotypic distance (E31 [7]; 12.3 nM) was 2.97 and the phenotypic distance (E31 [7]; 37 nM) was 3.12. The phenotypic distance (E31 [7]; 111.1 nM) was 4.59, the phenotypic distance (E31 [7]; 333.3 nM) was 4.15 and the phenotypic distance (E31 [7]; 1000 nM) was 5.28. It also gave a phenotypic distance (E31 [7]; 3000 nM) of 4.78, a surviving fraction (E34 [8]; 4.1 nM) of 0.611 and a surviving fraction (E34 [8]; 12.3 nM) of 0.511. It also gave a surviving fraction (E34 [8]; 37 nM) of 0.54, a surviving fraction (E34 [8]; 111.1 nM) of 0.538 and a surviving fraction (E34 [8]; 333.3 nM) of 0.479. The surviving fraction (E34 [8]; 1000 nM) was 0.448, the surviving fraction (E34 [8]; 3000 nM) was 0.15 and the surviving fraction (E13 [9]; 4.1 nM) was 0.402. It also gave a surviving fraction (E13 [9]; 12.3 nM) of 0.404, a surviving fraction (E13 [9]; 37 nM) of 0.255 and a surviving fraction (E13 [9]; 111.1 nM) of 0.25. The surviving fraction (E13 [9]; 333.3 nM) was 0.179, the surviving fraction (E13 [9]; 1000 nM) was 0.0911 and the surviving fraction (E13 [9]; 3000 nM) was 0.0243. The surviving fraction (E21 [10]; 4.1 nM) was 0.371, the surviving fraction (E21 [10]; 12.3 nM) was 0.371 and the surviving fraction (E21 [10]; 37 nM) was 0.165. For the same compound, the surviving fraction (E21 [10]; 111.1 nM) was 0.193, the surviving fraction (E21 [10]; 333.3 nM) was 0.167 and the surviving fraction (E21 [10]; 1000 nM) was 0.164. It also gave a surviving fraction (E21 [10]; 3000 nM) of 0.0457, a surviving fraction (FT3469 [11]; 4.1 nM) of 0.654 and a surviving fraction (FT3469 [11]; 12.3 nM) of 0.716. For the same compound, the surviving fraction (FT3469 [11]; 37 nM) was 0.663, the surviving fraction (FT3469 [11]; 111.1 nM) was 0.592 and the surviving fraction (FT3469 [11]; 333.3 nM) was 0.495. It also gave a surviving fraction (FT3469 [11]; 1000 nM) of 0.439, a surviving fraction (FT3469 [11]; 3000 nM) of 0.0825 and a surviving fraction (E28 [12]; 4.1 nM) of 0.386. For the same compound, the surviving fraction (E28 [12]; 12.3 nM) was 0.41, the surviving fraction (E28 [12]; 37 nM) was 0.313 and the surviving fraction (E28 [12]; 111.1 nM) was 0.304. The surviving fraction (E28 [12]; 333.3 nM) was 0.271, the surviving fraction (E28 [12]; 1000 nM) was 0.18 and the surviving fraction (E28 [12]; 3000 nM) was 0.241. The surviving fraction (E57 [13]; 4.1 nM) was 0.197, the surviving fraction (E57 [13]; 12.3 nM) was 0.205 and the surviving fraction (E57 [13]; 37 nM) was 0.146. For the same compound, the surviving fraction (E57 [13]; 111.1 nM) was 0.166, the surviving fraction (E57 [13]; 333.3 nM) was 0.14 and the surviving fraction (E57 [13]; 1000 nM) was 0.124. For the same compound, the surviving fraction (E57 [13]; 3000 nM) was 0.0591, the surviving fraction (E31 [14]; 4.1 nM) was 0.259 and the surviving fraction (E31 [14]; 12.3 nM) was 0.226. For the same compound, the surviving fraction (E31 [14]; 37 nM) was 0.179, the surviving fraction (E31 [14]; 111.1 nM) was 0.149 and the surviving fraction (E31 [14]; 333.3 nM) was 0.139. The surviving fraction (E31 [14]; 1000 nM) was 0.114 and the surviving fraction (E31 [14]; 3000 nM) was 0.072.
